Results: ChEMBL document CHEMBL5532720, “A Potent Solution for Tumor Growth and Angiogenesis Suppression via an ELR+CXCL-CXCR1/2 Pathway Inhibitor” (ACS Med Chem Lett, 2024)
Converted amounts (≈) assume the structure as drawn. The source made the active and inactive calls. The calls are words filed in the database; no cut-off is given here.

Key:
[1] = target: Mitogen-activated protein kinase kinase kinase 11 (Homo sapiens) (UniProt Q16584); experiment: Inhibition of MAP3K11 (unknown origin) at 10 uM in presence of ATP at Km concentration
[2] = AUC (0 to infinity) in NOD SCID mouse at 100 mg/kg, po; type: ADME, organism-based; settings: in vivo
CAL-27 = experiment: Antiproliferative activity against human CAL-27 cells incubated for 48 hrs by XTT assay; type: functional, cell-based; settings: CAL-27, 48 h
[3] = target: Eukaryotic elongation factor 2 kinase (Homo sapiens) (UniProt O00418); experiment: Inhibition of EEF2K (unknown origin) at 10 uM in presence of ATP at Km concentration
[4] = Antiproliferative activity against human Cisplatin and radiotherapy resistant CAL27RR cells incubated for 48 hrs by XTT assay; type: functional, cell-based
A498 [5] = experiment: Downregulation of CXCL8 mRNA expression in human A498 cells at 1 to 2.5 uM incubated for 48 hrs by qPCR analysis; type: functional, cell-based; settings: dose 1-2.5 µM
[6] = Cmax in NOD SCID mouse at 100 mg/kg, po; type: ADME, organism-based; settings: in vivo
[7] = Antiproliferative activity against human Sunitinib-resistant 786-R cells incubated for 48 hrs by XTT assay; type: functional, cell-based
[8] = target: Vascular endothelial growth factor receptor 2 (Homo sapiens) (UniProt P35968); experiment: Inhibition of KDR (unknown origin) at 10 uM in presence of ATP at Km concentration
[9] = Antiproliferative activity against human Cisplatin and radiotherapy resistant CAL33RR cells incubated for 48 hrs by XTT assay; type: functional, cell-based
[10] = Aqueous solubility of compound in PBS; type: physicochemical
[11] = target: CDK7/Cyclin H/MNAT1 (Homo sapiens) (UniProt P51946+P50613+P51948); experiment: Inhibition of CDK7/cyclin H/MNAT1 (unknown origin) at 10 uM in presence of ATP at Km concentration; type: protein-complex assay
[12] = Stability in human plasma assessed as compound remaining measured after 120 mins; type: ADME, cell-free; settings: read-out: Stability
[13] = target: Serine/threonine-protein kinase PAK 4 (Homo sapiens) (UniProt O96013); experiment: Inhibition of PAK4 (unknown origin) at 10 uM in presence of ATP at Km concentration
[14] = target: Mitogen-activated protein kinase kinase kinase 3 (Homo sapiens) (UniProt Q99759); experiment: Inhibition of MAP3K3 (unknown origin) at 10 uM in presence of ATP at Km concentration
[15] = Stability of compound in DMSO measured after 24 hrs; type: physicochemical
[16] = AUC (0 to infinity) in NOD SCID mouse at 1 mg/kg, iv; type: ADME, organism-based; settings: in vivo
[17] = Stability in human hepatocytes assessed as half-life; type: ADME, cell-based, Hepatocyte
[18] = Genotoxicity in Salmonella typhimurium TA100 upto 100 uM in presence of S9 fraction by Ames test; type: toxicity, subcellular; settings: salmonella enterica subsp. enterica serovar typhimurium, s9, 100 µM
[19] = target: Ephrin type-A receptor 5 (Homo sapiens) (UniProt P54756); experiment: Inhibition of EPHA5 (unknown origin) at 10 uM in presence of ATP at Km concentration
[20] = Stability in mouse plasma assessed as half-life; type: ADME, cell-free
786-0 [21] = experiment: Antitumor activity against human 786-0 cells xenografted in athymic nude mouse assessed as tumor growth inhibition at 100 mg/kg, po administered twice daily via gavage for 28 days relative to control; type: functional; settings: 786-0, 672 h, time 28 day, read-out: TGI
[22] = target: Phosphatidylinositol 4-phosphate 5-kinase type-1 gamma (Homo sapiens) (UniProt O60331); experiment: Inhibition of PIP5K1C (unknown origin) at 10 uM in presence of ATP at Km concentration
[23] = target: Mitogen-activated protein kinase kinase kinase kinase 4 (Homo sapiens) (UniProt O95819); experiment: Inhibition of MAP4K4 (unknown origin) at 10 uM in presence of ATP at Km concentration
[24] = Toxicity in athymic nude mouse xenografted with human 786-0 cells assessed as discernible signs at 100 mg/kg, po administered twice daily via gavage for 28 days; type: organism-based; settings: in vivo, 672 h, time 28 day
786-0 [25] = experiment: Antiproliferative activity against human 786-0 cells incubated for 48 hrs by XTT assay; type: functional, cell-based; settings: 786-0, 48 h
[26] = Cmax in NOD SCID mouse at 200 mg/kg, po; type: ADME, organism-based; settings: in vivo
[27] = Stability in human microsomes assessed as compound remaining measured after 1 hrs; type: ADME, Microsome; settings: read-out: Stability
[28] = Aqueous solubility of compound in SIF at pH 7.5; type: ADME
[29] = Stability in mouse hepatocytes assessed as half-life; type: ADME, cell-based, Hepatocyte
[30] = target: Phosphatidylinositol 4-kinase beta (Homo sapiens) (UniProt Q9UBF8); experiment: Inhibition of PI4KB (unknown origin) at 10 uM in presence of ATP at Km concentration
[31] = C0 in NOD SCID mouse at 1 mg/kg, iv; type: ADME, organism-based; settings: in vivo
A498 [32] = experiment: Inhibition of CXCL1 secretion in human A498 cells at 1 to 2.5 uM incubated for 48 hrs by ELISA; type: functional, cell-based; settings: dose 1-2.5 µM
[33] = target: Phosphatidylinositol 4-phosphate 3-kinase C2 domain-containing subunit alpha (Homo sapiens) (UniProt O00443); experiment: Inhibition of PIK3C2A (unknown origin) at 10 uM in presence of ATP at Km concentration
[34] = Protein binding in mouse plasma; type: ADME, cell-free; settings: read-out: PPB (converted)
[35] = target: Receptor-interacting serine/threonine-protein kinase 2 (Homo sapiens) (UniProt O43353); experiment: Inhibition of RIPK2 (unknown origin) at 10 uM in presence of ATP at Km concentration
[36] = Genotoxicity in Salmonella typhimurium TA1537 upto 100 uM in absence of S9 fraction by Ames test; type: toxicity; settings: salmonella enterica subsp. enterica serovar typhimurium, s9, 100 µM
[37] = AUC (0 to infinity) in NOD SCID mouse at 200 mg/kg, po; type: ADME, organism-based; settings: in vivo
[38] = target: Ribosomal protein S6 kinase alpha-4 (Homo sapiens) (UniProt O75676); experiment: Inhibition of RPS6KA4 (unknown origin) at 10 uM in presence of ATP at Km concentration
[39] = Stability of compound at pH 12 measured after 24 hrs; type: physicochemical; settings: buffer, pH 12, 24 h
[40] = target: Mitogen-activated protein kinase 9 (Homo sapiens) (UniProt P45984); experiment: Inhibition of MAPK9 (unknown origin) at 10 uM in presence of ATP at Km concentration
[41] = Stability of compound at pH 2 measured after 24 hrs; type: physicochemical; settings: buffer, pH 2, 24 h
[42] = target: Ephrin type-B receptor 4 (Homo sapiens) (UniProt P54760); experiment: Inhibition of EPHB4 (unknown origin) at 10 uM in presence of ATP at Km concentration
TIME = experiment: Inhibition of CXCL8-dependent cell migration in human TIME cells at 0.5 uM incubated for 24 hrs by crystal violet staining based analysis; type: functional

Chain of Mitogen-activated protein kinase kinase kinase 11 (Homo sapiens) (Q16584 whole entry, looked up): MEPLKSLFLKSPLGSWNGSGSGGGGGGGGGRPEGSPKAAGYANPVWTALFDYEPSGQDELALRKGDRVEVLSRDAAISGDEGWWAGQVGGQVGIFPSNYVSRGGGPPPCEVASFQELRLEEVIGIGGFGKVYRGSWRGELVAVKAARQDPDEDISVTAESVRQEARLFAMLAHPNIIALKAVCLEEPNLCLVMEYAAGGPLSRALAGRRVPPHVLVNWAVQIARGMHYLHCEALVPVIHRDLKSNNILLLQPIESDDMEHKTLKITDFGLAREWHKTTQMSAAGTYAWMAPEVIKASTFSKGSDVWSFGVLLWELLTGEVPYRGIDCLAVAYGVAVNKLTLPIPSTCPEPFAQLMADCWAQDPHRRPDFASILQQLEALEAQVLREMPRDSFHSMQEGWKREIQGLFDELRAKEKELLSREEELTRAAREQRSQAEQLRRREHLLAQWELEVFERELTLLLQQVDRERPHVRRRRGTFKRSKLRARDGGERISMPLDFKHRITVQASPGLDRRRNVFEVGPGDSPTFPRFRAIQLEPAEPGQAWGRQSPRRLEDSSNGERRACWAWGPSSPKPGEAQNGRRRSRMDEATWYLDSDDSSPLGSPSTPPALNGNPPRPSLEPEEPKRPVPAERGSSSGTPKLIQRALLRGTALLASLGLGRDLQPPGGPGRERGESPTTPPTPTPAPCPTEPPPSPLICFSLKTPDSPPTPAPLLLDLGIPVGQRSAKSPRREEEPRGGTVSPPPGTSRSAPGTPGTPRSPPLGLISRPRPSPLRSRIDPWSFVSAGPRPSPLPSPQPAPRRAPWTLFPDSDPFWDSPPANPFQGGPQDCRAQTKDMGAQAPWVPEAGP
Chain of Mitogen-activated protein kinase kinase kinase 3 (Homo sapiens) (Q99759 whole entry): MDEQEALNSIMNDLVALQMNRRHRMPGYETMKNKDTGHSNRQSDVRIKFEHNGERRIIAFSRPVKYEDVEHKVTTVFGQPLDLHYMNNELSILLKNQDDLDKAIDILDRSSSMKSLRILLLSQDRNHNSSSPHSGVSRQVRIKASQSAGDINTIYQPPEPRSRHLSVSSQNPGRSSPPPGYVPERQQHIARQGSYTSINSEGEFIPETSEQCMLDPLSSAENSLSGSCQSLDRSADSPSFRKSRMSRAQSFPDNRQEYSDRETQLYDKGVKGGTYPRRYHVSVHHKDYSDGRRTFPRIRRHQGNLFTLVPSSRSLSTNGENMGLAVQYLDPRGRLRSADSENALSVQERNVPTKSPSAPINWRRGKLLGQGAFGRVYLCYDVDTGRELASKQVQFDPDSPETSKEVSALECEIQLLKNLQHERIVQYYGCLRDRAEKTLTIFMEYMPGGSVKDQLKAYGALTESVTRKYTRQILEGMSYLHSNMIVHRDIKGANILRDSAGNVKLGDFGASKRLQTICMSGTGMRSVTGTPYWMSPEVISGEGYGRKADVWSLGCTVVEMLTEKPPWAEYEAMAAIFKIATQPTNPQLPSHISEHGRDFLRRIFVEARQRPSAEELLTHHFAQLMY
Chain of Mitogen-activated protein kinase 9 (Homo sapiens) (P45984 whole entry, looked up): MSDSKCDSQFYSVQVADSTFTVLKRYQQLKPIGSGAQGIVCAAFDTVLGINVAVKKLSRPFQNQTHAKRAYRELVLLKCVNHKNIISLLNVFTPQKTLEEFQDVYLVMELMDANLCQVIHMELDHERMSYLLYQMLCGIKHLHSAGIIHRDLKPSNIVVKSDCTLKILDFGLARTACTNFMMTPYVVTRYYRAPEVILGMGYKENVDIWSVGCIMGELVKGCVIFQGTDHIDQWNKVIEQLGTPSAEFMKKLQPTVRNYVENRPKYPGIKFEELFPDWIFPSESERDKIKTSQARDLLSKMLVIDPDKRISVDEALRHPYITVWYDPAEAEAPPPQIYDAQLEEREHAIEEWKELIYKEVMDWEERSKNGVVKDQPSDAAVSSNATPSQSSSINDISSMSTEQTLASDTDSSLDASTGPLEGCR
Chain of Eukaryotic elongation factor 2 kinase (Homo sapiens) (O00418 whole entry): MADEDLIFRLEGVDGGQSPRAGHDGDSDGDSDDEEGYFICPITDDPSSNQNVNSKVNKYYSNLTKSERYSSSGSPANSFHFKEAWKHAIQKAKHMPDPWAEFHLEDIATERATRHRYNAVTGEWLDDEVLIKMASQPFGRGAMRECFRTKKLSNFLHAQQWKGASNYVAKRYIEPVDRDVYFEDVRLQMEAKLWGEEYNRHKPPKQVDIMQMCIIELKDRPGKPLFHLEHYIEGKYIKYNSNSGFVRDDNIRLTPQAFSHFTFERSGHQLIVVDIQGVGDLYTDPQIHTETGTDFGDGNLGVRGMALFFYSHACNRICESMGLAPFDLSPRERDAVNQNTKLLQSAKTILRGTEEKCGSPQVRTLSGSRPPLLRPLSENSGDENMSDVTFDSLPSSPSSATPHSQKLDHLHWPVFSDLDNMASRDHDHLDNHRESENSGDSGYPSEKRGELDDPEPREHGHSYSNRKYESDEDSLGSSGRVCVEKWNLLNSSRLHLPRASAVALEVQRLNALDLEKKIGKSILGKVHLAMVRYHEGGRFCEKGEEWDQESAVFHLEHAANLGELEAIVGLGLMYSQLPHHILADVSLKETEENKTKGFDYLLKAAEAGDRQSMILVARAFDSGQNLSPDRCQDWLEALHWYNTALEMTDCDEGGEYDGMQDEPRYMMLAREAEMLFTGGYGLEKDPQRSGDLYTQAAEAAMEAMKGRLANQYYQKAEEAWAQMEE
Chain of Ephrin type-A receptor 5 (Homo sapiens) (P54756 whole entry): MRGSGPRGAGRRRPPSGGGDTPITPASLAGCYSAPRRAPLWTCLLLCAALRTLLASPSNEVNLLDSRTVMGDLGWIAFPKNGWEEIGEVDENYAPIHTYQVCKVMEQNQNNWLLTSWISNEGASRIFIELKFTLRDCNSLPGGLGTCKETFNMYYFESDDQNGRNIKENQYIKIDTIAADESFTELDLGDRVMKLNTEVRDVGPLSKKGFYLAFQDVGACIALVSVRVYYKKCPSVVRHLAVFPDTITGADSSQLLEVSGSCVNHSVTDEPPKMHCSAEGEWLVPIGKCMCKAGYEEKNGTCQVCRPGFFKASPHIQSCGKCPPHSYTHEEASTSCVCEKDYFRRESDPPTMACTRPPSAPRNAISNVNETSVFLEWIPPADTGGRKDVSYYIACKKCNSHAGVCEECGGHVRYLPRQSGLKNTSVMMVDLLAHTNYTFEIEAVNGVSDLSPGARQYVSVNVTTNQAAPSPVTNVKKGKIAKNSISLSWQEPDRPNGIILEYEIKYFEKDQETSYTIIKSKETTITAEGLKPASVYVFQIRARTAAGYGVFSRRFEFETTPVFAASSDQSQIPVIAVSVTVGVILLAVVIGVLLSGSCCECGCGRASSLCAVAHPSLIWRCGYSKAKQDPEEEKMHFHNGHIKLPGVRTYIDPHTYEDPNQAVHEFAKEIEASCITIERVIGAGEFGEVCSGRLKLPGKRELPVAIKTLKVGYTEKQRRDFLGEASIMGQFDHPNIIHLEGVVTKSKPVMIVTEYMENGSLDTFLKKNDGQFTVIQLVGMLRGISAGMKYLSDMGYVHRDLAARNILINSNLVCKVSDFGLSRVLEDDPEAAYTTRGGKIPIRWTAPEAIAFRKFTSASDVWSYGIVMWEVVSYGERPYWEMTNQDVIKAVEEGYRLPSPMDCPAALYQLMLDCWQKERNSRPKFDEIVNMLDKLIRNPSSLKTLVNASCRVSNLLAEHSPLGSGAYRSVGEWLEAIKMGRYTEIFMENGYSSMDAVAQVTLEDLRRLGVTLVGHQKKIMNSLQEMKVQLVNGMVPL
Chain of Receptor-interacting serine/threonine-protein kinase 2 (Homo sapiens) (O43353 whole entry): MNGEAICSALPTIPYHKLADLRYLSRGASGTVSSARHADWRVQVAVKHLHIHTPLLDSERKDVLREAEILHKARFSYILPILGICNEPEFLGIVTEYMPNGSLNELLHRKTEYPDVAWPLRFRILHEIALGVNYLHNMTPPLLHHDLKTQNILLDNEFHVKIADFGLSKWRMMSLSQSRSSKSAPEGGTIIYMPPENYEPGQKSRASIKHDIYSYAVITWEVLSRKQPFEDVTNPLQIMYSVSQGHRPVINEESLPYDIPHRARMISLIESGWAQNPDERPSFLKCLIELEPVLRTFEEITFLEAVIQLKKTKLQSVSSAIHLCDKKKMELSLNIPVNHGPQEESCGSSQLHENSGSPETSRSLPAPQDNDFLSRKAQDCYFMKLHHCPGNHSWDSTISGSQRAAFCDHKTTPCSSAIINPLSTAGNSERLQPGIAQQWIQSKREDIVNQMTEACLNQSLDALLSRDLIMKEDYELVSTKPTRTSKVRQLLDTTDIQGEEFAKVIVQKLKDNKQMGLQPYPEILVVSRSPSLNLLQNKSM
Chain of Phosphatidylinositol 4-phosphate 5-kinase type-1 gamma (Homo sapiens) (O60331 whole entry): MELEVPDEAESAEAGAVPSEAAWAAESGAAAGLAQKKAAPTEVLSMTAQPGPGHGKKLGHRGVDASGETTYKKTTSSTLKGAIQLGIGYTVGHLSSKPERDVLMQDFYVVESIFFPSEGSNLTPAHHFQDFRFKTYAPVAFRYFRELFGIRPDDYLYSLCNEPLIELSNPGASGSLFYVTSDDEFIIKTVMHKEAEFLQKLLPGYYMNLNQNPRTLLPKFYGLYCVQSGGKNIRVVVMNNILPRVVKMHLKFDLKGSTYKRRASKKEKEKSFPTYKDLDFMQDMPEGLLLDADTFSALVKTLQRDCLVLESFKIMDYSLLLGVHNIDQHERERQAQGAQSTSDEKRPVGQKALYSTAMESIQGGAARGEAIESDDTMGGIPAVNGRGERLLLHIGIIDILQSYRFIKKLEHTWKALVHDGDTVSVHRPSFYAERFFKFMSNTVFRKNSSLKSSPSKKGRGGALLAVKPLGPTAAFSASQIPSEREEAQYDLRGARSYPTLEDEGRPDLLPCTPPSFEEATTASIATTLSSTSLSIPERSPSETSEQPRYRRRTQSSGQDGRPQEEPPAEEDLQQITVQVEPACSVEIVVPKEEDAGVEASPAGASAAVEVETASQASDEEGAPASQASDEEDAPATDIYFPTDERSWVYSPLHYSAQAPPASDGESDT

inhibition [1]: inactive | AUC(0-inf) [2]: 14200 ng·h/mL | inhibition [3]: inactive | Cmax [6]: 2.8 µM | inhibition [8]: inactive | solubility [10]: 1.9 µM (≈ 0.728 µg/mL) | inhibition [11]: inactive | remaining at 2 h [12]: 85% | inhibition [13]: inactive | inhibition [14]: inactive | Stability [15]: Stable | AUC(0-inf) [16]: 433 ng·h/mL | half-life [17]: 38.6 min | inhibition [19]: inactive | half-life [20]: > 289 min | inhibition [22]: inactive | inhibition [23]: inactive | IC50 (786-0 [25]): 2.5 µM | Cmax [26]: 5.2 µM | remaining at 1 h [27]: 71% | solubility [28]: 3 µM (≈ 1.15 µg/mL) | half-life [29]: 21.1 min | inhibition [30]: inactive | C0 [31]: 3.6 µM | inhibition [33]: inactive | fraction unbound [34]: 0.004 | inhibition [35]: inactive | AUC(0-inf) [37]: 19300 ng·h/mL | inhibition [38]: inactive | Stability [39]: Stable | inhibition [40]: inactive | Stability [41]: Stable | inhibition [42]: inactive
Structure (SMILES): O=C(Nc1cc(Cl)cc(Cl)c1)Nc1nc2ccc([N+](=O)[O-])cc2s1
IC50 (CAL-27): 2.5 µM | IC50 [4]: 2.5 µM | Activity (A498 [5]): Active | IC50 [7]: 3 µM | IC50 [9]: 4 µM | Activity [18]: Non-Toxic | inhibition in vivo at 100 mg/kg (786-0 [21]): 87% | Activity [24]: Non-Toxic | inhibition (A498 [32]): Active | Activity [36]: Non-Toxic | inhibition (TIME): Active
